Columns and labels:
[1] = test system: Human alphaherpesvirus 2; type: functional, organism-based; settings: Human alphaherpesvirus 2, G, HEL
[2] = test system: Human adenovirus 2; type: functional, organism-based; settings: Human mastadenovirus C, HEL
[3] = test system: Vaccinia virus; test: microbe, parasite or virus in culture; settings: Orthopoxvirus vaccinia, HEL
[4] = test system: Human alphaherpesvirus 3; type: functional, organism-based; settings: Human alphaherpesvirus 3, OKA, HEL
[5] = test system: Human alphaherpesvirus 1; type: functional, organism-based; settings: Human alphaherpesvirus 1, KOS, HEL
[6] = test system: Human alphaherpesvirus 3; type: functional, organism-based; settings: Human alphaherpesvirus 3, O7-1, HEL
[7] = test system: Human alphaherpesvirus 1; type: functional, organism-based; settings: Human alphaherpesvirus 1, KOS, HEL; remark: listed apart in the source
[8] = (§1) Cytotoxicity against HEL cells assessed as alteration of cell morphology by microscopic analysis; type: toxicity, cell-based; settings: human, HEL cells
[9] = test system: Human betaherpesvirus 5; type: functional, organism-based; settings: Human betaherpesvirus 5, AD-169, HEL
[10] = test system: Human betaherpesvirus 5; type: functional, organism-based; settings: Human betaherpesvirus 5, Davis, HEL
[11] = test system: HEL; test: as §1; type: toxicity, cell-based; settings: human, hel

SMILES	EC50 [1]	EC50 [2]	EC50 [3]	EC50 [4]	EC50 [5]	EC50 [6]	EC50 [7]	MCC [8]	EC50 [9]	EC50 [10]	Activity [11]
O=c1[nH]c(=O)n([C@@H]2CN[C@H](CO)[C@@H](O)C2)cc1I	45 µM	50 µM	50 µM	50 µM	34 µM	61 µM	45 µM	> 100 µM	76 µM	67 µM	–
Nc1nc(=O)n([C@@H]2CN[C@H](CO)[C@@H](O)C2)cc1F	–	–	–	–	–	–	–	–	–	–	Non-Toxic
Nc1nc2c(ncn2COCCO)c(=O)[nH]1 [ACYCLOVIR]	–	–	> 250 µM	0.7 µM	126 µM	14.7 µM	–	> 250 µM	–	–	–
O=c1[nH]c(=O)n([C@H]2C[C@H](O)[C@@H](CO)O2)cc1/C=C/Br [BRIVUDINE]	–	–	–	0.042 µM	–	2.4 µM	–	> 250 µM	–	–	–
Nc1ccn(C[C@@H](CO)OCP(=O)(O)O)c(=O)n1 [CIDOFOVIR]	–	–	–	–	1 µM	–	–	> 250 µM	–	–	–
Nc1nc2c(ncn2COC(CO)CO)c(=O)[nH]1 [GANCICLOVIR]	–	–	> 100 µM	–	–	–	–	> 100 µM	–	0.63 µM	–

From ChEMBL document CHEMBL5108006, “Synthesis and antiviral properties of biomimetic iminosugar-based nucleosides” (Eur J Med Chem, 2022)
